Patent US9085606B2, “Beta amino acid derivatives as integrin antagonists” (Saint Louis University, priority 2012, dated 2015)
pIC50: −log10 of the molar value.

Experiments:
[1] = target: T1, Recombinant human integrin α5β1 (Homo sapiens, UniProt P05556+P08648); test: Solid Phase Receptor Assay for α5β1 Function; conditions: binding to fibronectin-coated plate; read-out: α5β1 SPRA IC50
T1 construct: purchased R&D Systems 3230-A5
Method: Solid Phase Receptor Assay for α5β1 Function.
Wells were washed 3 times with 150 μL TBS+ and 150 μl of blocking buffer (TBS+ with 1% bovine serum albumin, Sigma A7906) were added. The plate was incubated for 1 hr at 37° C. and then washed 3× with TBS+ buffer. […] Compounds were diluted 1:100 into the integrin solution and then 50 μL added to empty wells of the washed fibronectin-coated plate according to a standard template with each sample repeated in triplicate. After incubation for two hours at room temperature, the plate was washed 3× with 150 μL of TBS+ buffer. To each well, 50 μL of biotinylated anti-α5 antibody (R&D Systems, BAF1864) at 0.5 ug/mL in TBS+/0.1% BSA were added and the plate covered and incubated for 1 hr at room temperature. After washing the plate 3× with 150 μL of TBS+ buffer, 50 μL of streptavidin-conjugated horseradish peroxidase (R&D Systems, DY998) diluted in TBS+ blocking buffer were added to the wells and the plate incubated for 20 min at room temperature. The plate was washed 3× with TBS+ buffer followed by 50 μL of room temperature TMB substrate (Sigma, T444) added to each well and the plate incubated for 20 min at room temperature. The reaction was optionally stopped with 25 μL of Stop Solution (Sigma S5689). Plates were read by colorimetric detection at 650 nm wavelength using a Tecan Safire II plate reader.

[2] = target: T2, Recombinant human integrin αvβ5 (Homo sapiens, UniProt P06756+P18084); test: Solid Phase Receptor Assay for αvβ5 Function; conditions: binding to vitronectin-coated plate; read-out: αvβ5 SPRA IC50
T2 construct: purchased R&D Systems 2528-AV
Method: Solid Phase Receptor Assay for αvβ5 Function.
(§1) Wells were washed 3 times with 150 μL TBS+ and 150 μL of blocking buffer (TBS+ with 1% bovine serum albumin, Sigma A7906) were added. The plate was incubated for 1 hr at 37° C. and then washed 3× with TBS+ buffer. […] Compounds were diluted 1:100 into the integrin solution and then 50 μL added to empty wells of the washed vitronectin-coated plate according to a standard template with each sample repeated in triplicate. After incubation for two hours at room temperature, the plate was washed 3× with 150 μL of TBS+ buffer. To each well, 50 μL of biotinylated anti-αv antibody (R&D Systems, BAF1219) at 0.5 μg/mL in TBS+/0.1% BSA at 0.5 μg/mL were added and the plate covered and incubated for 1 hr at room temperature. After washing the plate 3× with 150 μL of TBS+ buffer, 50 μL of streptavidin-conjugated horseradish peroxidase (R&D Systems DY998) diluted in TBS+ blocking buffer were added to the wells and the plate incubated for 20 min at room temperature. The plate was washed 3× with TBS+ buffer followed by 50 μL of TMB substrate (Sigma T4444) added to each well and the plate incubated for 20 min at room temperature. The reaction was optionally stopped with 25 μL of Stop Solution (Sigma S5689). Plates were read by colorimetric detection at 650 nm wavelength using a Tecan Safire II plate reader.

[3] = target: T3, Recombinant human integrin αvβ6 (Homo sapiens, UniProt P06756+P18564); test: Solid Phase Receptor Assay for αvβ6 Function; conditions: binding to LAP-coated plate; read-out: αvβ6 SPRA IC50
T3 construct: purchased R&D Systems 3817-AV
Method: Solid Phase Receptor Assay for αvβ6 Function.
as §1, with “150 μL TBS+, and 150” for “150 μL TBS+ and 150”, “at 37° C., and then” for “at 37° C. and then”, “the washed LAP-coated plate according” for “the washed vitronectin-coated plate according”, “TBS+/0.1% BSA were added” for “TBS+/0.1% BSA at 0.5 μg/mL were added”, “the plate was covered and” for “the plate covered and”, “peroxidase (R&D Systems, DY998) diluted” for “peroxidase (R&D Systems DY998) diluted”

T3 sequence (P06756 31-992 limits assumed): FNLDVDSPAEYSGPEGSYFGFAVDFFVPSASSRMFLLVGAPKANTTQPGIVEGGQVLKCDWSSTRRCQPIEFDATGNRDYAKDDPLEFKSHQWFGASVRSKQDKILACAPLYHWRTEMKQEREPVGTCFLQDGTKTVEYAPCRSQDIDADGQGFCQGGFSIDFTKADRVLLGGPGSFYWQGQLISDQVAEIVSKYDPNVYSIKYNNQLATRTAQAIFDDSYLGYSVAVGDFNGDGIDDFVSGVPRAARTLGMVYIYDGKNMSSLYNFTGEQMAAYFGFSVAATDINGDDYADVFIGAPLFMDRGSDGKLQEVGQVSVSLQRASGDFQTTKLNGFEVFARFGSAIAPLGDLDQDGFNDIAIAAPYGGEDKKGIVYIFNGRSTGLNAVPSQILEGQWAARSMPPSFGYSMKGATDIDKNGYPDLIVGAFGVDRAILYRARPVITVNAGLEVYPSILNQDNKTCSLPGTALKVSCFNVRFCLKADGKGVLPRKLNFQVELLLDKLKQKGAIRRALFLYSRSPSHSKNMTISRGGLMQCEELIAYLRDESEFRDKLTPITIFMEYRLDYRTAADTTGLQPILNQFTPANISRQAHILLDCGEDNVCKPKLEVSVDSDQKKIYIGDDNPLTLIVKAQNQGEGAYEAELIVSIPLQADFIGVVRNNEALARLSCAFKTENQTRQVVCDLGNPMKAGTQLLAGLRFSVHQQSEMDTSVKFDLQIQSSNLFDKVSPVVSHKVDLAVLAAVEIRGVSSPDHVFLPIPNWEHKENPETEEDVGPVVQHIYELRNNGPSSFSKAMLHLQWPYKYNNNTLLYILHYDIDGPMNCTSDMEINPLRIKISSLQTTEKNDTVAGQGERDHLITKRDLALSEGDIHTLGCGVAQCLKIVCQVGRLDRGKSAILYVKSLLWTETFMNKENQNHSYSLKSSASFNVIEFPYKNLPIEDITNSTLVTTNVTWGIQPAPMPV
T3 sequence (P18564 22-707 limits assumed): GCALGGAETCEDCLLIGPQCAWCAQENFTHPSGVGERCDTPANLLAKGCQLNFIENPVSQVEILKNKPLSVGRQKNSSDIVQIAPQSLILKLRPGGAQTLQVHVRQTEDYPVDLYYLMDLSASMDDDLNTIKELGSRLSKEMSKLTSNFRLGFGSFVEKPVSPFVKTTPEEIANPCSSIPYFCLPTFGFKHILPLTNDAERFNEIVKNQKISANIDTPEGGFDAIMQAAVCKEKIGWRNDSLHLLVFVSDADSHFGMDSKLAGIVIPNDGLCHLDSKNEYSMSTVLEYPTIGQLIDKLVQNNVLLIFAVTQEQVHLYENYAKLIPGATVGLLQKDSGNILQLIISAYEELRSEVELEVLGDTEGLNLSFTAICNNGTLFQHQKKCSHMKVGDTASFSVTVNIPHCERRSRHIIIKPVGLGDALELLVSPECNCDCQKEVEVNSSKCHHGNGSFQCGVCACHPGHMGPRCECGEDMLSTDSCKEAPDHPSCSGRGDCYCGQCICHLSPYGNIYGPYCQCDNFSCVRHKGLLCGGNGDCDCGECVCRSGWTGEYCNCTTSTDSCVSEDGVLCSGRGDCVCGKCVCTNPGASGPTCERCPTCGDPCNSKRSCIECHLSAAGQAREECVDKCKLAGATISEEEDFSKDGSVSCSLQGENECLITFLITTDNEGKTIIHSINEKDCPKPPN
T2 sequence (P06756 31-992 limits assumed): as the sequence (P06756 31-992 limits assumed) above
T2 sequence (P18084 24-719 limits assumed): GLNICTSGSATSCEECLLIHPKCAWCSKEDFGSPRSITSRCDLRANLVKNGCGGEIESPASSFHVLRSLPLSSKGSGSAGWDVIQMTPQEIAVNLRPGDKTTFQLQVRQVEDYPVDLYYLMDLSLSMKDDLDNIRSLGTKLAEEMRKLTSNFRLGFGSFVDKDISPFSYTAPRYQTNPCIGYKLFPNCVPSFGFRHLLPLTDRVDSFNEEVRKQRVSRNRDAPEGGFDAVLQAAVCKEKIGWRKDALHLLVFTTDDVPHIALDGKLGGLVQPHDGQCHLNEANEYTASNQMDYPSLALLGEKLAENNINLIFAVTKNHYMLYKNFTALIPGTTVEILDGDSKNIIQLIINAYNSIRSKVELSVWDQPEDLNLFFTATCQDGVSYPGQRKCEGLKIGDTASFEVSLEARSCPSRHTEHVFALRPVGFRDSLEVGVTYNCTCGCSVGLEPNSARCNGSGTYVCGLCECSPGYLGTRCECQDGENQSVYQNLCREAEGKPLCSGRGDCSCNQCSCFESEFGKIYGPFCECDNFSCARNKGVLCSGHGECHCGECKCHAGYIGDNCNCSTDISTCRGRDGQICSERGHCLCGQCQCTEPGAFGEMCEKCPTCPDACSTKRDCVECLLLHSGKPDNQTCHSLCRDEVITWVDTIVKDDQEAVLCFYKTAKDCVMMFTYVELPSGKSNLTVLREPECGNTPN
T1 sequence (P08648 42-995 limits assumed): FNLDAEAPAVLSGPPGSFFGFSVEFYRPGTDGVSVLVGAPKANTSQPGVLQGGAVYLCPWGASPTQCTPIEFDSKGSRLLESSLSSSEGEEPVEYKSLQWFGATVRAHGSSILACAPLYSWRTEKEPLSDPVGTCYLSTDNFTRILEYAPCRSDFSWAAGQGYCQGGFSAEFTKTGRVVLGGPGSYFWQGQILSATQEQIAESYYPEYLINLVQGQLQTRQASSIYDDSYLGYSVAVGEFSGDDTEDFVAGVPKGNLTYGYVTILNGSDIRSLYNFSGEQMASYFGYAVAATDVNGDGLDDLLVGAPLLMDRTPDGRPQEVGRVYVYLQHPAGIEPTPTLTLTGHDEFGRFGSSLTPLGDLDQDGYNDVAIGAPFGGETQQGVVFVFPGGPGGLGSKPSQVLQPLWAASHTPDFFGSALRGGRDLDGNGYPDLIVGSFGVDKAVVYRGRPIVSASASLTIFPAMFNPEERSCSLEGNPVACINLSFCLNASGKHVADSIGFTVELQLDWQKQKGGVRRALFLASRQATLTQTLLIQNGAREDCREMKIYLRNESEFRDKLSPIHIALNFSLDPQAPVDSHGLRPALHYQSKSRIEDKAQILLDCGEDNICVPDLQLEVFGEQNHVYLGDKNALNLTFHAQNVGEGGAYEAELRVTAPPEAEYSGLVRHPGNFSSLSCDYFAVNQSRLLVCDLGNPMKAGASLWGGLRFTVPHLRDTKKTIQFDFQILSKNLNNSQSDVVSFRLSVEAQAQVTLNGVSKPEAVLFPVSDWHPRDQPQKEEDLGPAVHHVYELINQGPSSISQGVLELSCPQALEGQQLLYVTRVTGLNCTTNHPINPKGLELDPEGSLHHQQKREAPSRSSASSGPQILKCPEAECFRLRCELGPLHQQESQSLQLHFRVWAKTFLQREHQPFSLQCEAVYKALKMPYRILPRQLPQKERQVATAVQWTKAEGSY
T1 sequence (P05556 21-728 limits assumed): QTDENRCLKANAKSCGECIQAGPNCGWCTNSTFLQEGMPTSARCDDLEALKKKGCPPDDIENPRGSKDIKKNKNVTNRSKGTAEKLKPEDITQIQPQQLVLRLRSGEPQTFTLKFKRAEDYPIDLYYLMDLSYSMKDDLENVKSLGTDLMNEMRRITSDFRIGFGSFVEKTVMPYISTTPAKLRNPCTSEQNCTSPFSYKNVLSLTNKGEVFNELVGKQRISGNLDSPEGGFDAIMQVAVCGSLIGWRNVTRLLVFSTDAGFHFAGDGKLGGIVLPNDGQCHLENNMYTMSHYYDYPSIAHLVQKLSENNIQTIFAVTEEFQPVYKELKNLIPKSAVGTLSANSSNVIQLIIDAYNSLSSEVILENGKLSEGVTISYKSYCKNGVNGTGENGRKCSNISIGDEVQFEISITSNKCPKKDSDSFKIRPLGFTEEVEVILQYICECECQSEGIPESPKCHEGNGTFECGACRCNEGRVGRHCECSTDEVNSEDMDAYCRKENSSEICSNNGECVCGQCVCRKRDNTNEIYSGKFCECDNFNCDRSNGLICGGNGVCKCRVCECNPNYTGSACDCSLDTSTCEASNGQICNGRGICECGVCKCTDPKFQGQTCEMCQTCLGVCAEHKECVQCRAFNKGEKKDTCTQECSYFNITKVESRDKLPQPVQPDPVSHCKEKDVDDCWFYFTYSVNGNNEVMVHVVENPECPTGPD

`N#CC1(c2cc(Cl)cc([C@H](CC(=O)O)NC(=O)CNC(=O)c3cc(O)cc(NC4=NCC(O)CN4)c3)c2)CCC1` (stereo partly drawn) [Example 21, (3S)-3-(3-chloro-5-(1-cyanocyclobutyl)phenyl)-3-(2-(3-hydroxy-5-((5-hydroxy-1,4,5,6-tetrahydropyrimidin-2-yl)amino)benzamido)acetamido)propanoic acid] gave a pIC50 [1] of 9.52, a pIC50 [2] of 9.40 and a pIC50 [3] of 9.52.
Work on `N#CC1(c2cc(Cl)cc([C@H](CC(=O)O)NC(=O)CNC(=O)c3cc(O)cc(NC4=NCC(O)CN4)c3)c2)CCOCC1` (stereo partly drawn) [Example 22, (3S)-3-(3-chloro-5-(4-cyanotetrahydro-2H-pyran-4-yl)phenyl)-3-(2-(3-hydroxy-5-((5-hydroxy-1,4,5,6-tetrahydropyrimidin-2-yl)amino)benzamido)acetamido)propanoic acid] yielded a pIC50 [1] of 9.52, a pIC50 [2] of 9.40 and a pIC50 [3] of 9.52.
`CC(O)(c1cc(Cl)cc([C@H](CC(=O)O)NC(=O)CNC(=O)c2cc(O)cc(NC3=NCC(O)CN3)c2)c1)C(F)(F)F` (stereo partly drawn) [Example 23, (3S)-3-(3-chloro-5-(1,1,1-trifluoro-2-hydroxypropan-2-yl)phenyl)-3-(2-(3-hydroxy-5-((5-hydroxy-1,4,5,6-tetrahydropyrimidin-2-yl)amino)benzamido)acetamido)propanoic acid] gave a pIC50 [1] of 9.52, a pIC50 [2] of 9.30 and a pIC50 [3] of 9.40.
With `CC(C)(c1cc(Cl)cc([C@H](CC(=O)O)NC(=O)CNC(=O)c2cc(O)cc(NC3=NCC(O)CN3)c2)c1)C(F)(F)F` (stereo partly drawn) [Example 24, (3S)-3-(3-chloro-5-(1,1,1-trifluoro-2-methylpropan-2-yl)phenyl)-3-(2-(3-hydroxy-5-((5-hydroxy-1,4,5,6-tetrahydropyrimidin-2-yl)amino)benzamido)acetamido)propanoic acid] the pIC50 [1] was 9.52, the pIC50 [2] was 9.52 and the pIC50 [3] was 9.40.
With `CC(O)(c1cc([C@H](CC(=O)O)NC(=O)CNC(=O)c2cc(O)cc(NC3=NCC(O)CN3)c2)cc(C(F)(F)F)c1)C(F)(F)F` (stereo partly drawn) [Example 25, (3S)-3-(2-(3-hydroxy-5-((5-hydroxy-1,4,5,6-tetrahydropyrimidin-2-yl)amino)benzamido)acetamido)-3-(3-(1,1,1-trifluoro-2-hydroxypropan-2-yl)-5-(trifluoromethyl)phenyl)propanoic acid] the pIC50 [1] was 9.40, the pIC50 [2] was 8.89 and the pIC50 [3] was 9.40.
Compound `O=C(O)C[C@H](NC(=O)CNC(=O)c1cc(O)cc(NC2=NCC(O)CN2)c1)c1cc(Br)cc(C2(C(F)F)CC2)c1` (stereo partly drawn) [Example 26, (3S)-3-(3-bromo-5-(1-(difluoromethyl)cyclopropyl)phenyl)-3-(2-(3-hydroxy-5-((5-hydroxy-1,4,5,6-tetrahydropyrimidin-2-yl)amino)benzamido)acetamido)propanoic acid] has a pIC50 [1] of 10.00, a pIC50 [2] of 9.30 and a pIC50 [3] of 10.00.
